Measurements: ChEMBL document CHEMBL3046425, “Synthesis of Antifungal 2-Anilino-4-phenylthiazoles and Their Inhibitory Activities on Sterol Biosynthesis” (J Pestic Sci, 2001)
≈ marks a conversion by molar mass, not a printed value.

Legend:
[1] = test system: Pyricularia oryzae; assay: Antifungal activity against Magnaporthe oryzae; assay type: functional, organism-based
[2] = test system: Trichophyton mentagrophytes; assay: Antifungal activity against Trichophyton mentagrophytes; assay type: functional
[3] = test system: Botrytis cinerea; assay: Antifungal activity against Botryotinia fuckeliana; assay type: functional, organism-based
[4] = test system: Botrytis cinerea; assay: Antifungal activity against Botryotinia fuckeliana assessed as accumulation of squalene using [2-14C]acetate at 1 x 10^-7 M; assay type: functional
[5] = test system: Trichophyton mentagrophytes; assay: Antifungal activity against Trichophyton mentagrophytes assessed as accumulation of squalene using [2-14C]acetate at 1 x 10^-9 M; assay type: functional
[6] = biological target: T1, Squalene epoxidase ERG1 (Saccharomyces cerevisiae S288c) (UniProt P32476); assay: Inhibition of squalene epoxidase in Saccharomyces cerevisiae IFO 1346 assessed as incorporation of [2-14C]mevalonate into 4-desmethyl sterols at 1 x 10^-5 M after 3 hr; parameters: scale not given: the % may be the effect or the level left
T1 sequence (whole entry): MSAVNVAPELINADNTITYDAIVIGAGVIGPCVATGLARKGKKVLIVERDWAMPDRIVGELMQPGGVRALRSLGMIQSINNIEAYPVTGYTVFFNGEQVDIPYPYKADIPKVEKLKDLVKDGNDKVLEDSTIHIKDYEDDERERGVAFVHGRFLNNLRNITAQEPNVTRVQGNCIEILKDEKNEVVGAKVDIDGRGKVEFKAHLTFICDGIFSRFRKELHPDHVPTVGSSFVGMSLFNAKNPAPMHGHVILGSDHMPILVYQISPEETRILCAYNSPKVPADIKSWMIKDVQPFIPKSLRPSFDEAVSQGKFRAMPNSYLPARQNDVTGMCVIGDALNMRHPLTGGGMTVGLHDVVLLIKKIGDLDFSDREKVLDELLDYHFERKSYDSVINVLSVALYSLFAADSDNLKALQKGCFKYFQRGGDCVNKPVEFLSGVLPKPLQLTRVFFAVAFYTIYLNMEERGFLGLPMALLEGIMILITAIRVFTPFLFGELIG

[7] = test system: Botrytis cinerea; assay: Antifungal activity against Botryotinia fuckeliana assessed as accumulation of squalene using [2-14C]acetate at 1 x 10^-6 M; assay type: functional
[8] = test system: Trichophyton mentagrophytes; assay: Antifungal activity against Trichophyton mentagrophytes assessed as accumulation of squalene using [2-14C]acetate at 1 x 10^-7 M; assay type: functional
[9] = test system: Botrytis cinerea; assay: Antifungal activity against Botryotinia fuckeliana assessed as accumulation of squalene using [2-14C]acetate at 1 x 10^-5 M; assay type: functional
[10] = biological target: T1, Squalene epoxidase ERG1 (Saccharomyces cerevisiae S288c); assay: Inhibition of squalene epoxidase in Saccharomyces cerevisiae IFO 1346 assessed as incorporation of [2-14C]mevalonate into 4alpha-methyl sterols at 1 x 10^-5 M after 3 hr; parameters: scale not given: the % may be the effect or the level left
[11] = test system: Trichophyton mentagrophytes; assay: Antifungal activity against Trichophyton mentagrophytes assessed as accumulation of squalene using [2-14C]acetate at 1 x 10^-8 M; assay type: functional
[12] = biological target: T1, Squalene epoxidase ERG1 (Saccharomyces cerevisiae S288c); assay: Inhibition of squalene epoxidase in Saccharomyces cerevisiae IFO 1346 assessed as incorporation of [2-14C]mevalonate into 4,4-dimethyl sterols at 1 x 10^-5 M after 3 hr; parameters: scale not given: the % may be the effect or the level left
[13] = biological target: T1, Squalene epoxidase ERG1 (Saccharomyces cerevisiae S288c); assay: Inhibition of squalene epoxidase in Saccharomyces cerevisiae IFO 1346 assessed as incorporation of [2-14C]mevalonate into squalene at 1 x 10^-5 M after 3 hr; parameters: scale not given: the % may be the effect or the level left
[14] = biological target: T1, Squalene epoxidase ERG1 (Saccharomyces cerevisiae S288c); assay: Inhibition of squalene epoxidase in Saccharomyces cerevisiae IFO 1346 assessed as incorporation of [2-14C]mevalonate into 2,3-oxidosqualene at 1 x 10^-5 M after 3 hr; parameters: scale not given: the % may be the effect or the level left
[15] = test system: Botrytis cinerea; assay: Antifungal activity against Botryotinia fuckeliana assessed as accumulation of squalene using [2-14C]acetate at 3 x 10^-5 M; assay type: functional
[16] = biological target: T1, Squalene epoxidase ERG1 (Saccharomyces cerevisiae S288c); assay: Inhibition of squalene epoxidase in Saccharomyces cerevisiae IFO 1346 assessed as incorporation of [2-14C]mevalonate into 4,4-dimethyl sterols at 1 x 10^-4 M after 3 hr; parameters: scale not given: the % may be the effect or the level left
[17] = biological target: T1, Squalene epoxidase ERG1 (Saccharomyces cerevisiae S288c); assay: Inhibition of squalene epoxidase in Saccharomyces cerevisiae IFO 1346 assessed as incorporation of [2-14C]mevalonate into squalene at 1 x 10^-4 M after 3 hr; parameters: scale not given: the % may be the effect or the level left
[18] = biological target: T1, Squalene epoxidase ERG1 (Saccharomyces cerevisiae S288c); assay: Inhibition of squalene epoxidase in Saccharomyces cerevisiae IFO 1346 assessed as incorporation of [2-14C]mevalonate into 4-desmethyl sterols at 1 x 10^-4 M after 3 hr; parameters: scale not given: the % may be the effect or the level left
[19] = biological target: T1, Squalene epoxidase ERG1 (Saccharomyces cerevisiae S288c); assay: Inhibition of squalene epoxidase in Saccharomyces cerevisiae IFO 1346 assessed as incorporation of [2-14C]mevalonate into 2,3-oxidosqualene at 1 x 10^-4 M after 3 hr; parameters: scale not given: the % may be the effect or the level left
[20] = biological target: T1, Squalene epoxidase ERG1 (Saccharomyces cerevisiae S288c); assay: Inhibition of squalene epoxidase in Saccharomyces cerevisiae IFO 1346 assessed as incorporation of [2-14C]mevalonate into 4alpha-methyl sterols at 1 x 10^-4 M after 3 hr; parameters: scale not given: the % may be the effect or the level left

SMILES	EC50 [1] [µg/mL]	MIC [2] [µg/mL]	EC50 [3] [µg/mL]	also measured
CC(C)Oc1ccc(Nc2nc(-c3c(Cl)cccc3Cl)cs2)cc1	3 (≈ 7.91 µM)	30 (≈ 79.1 µM)	> 100	
Cc1cccc(N(C)C(=S)Oc2ccc3ccccc3c2)c1 [TOLNAFTATE]				Activity [4]: 10%; Activity [5]: 74.2%; Activity [6]: 43.6%; Activity [7]: 66%; Activity [8]: 81.5%; Activity [9]: 79%; Activity [10]: 1.2%; Activity [11]: 72.1%; Activity [12]: 1.9%; Activity [13]: 49%; Activity [14]: 3.5%
Clc1cccc(Nc2nc(-c3c(Cl)cccc3Cl)cs2)c1	10 (≈ 28.1 µM)	0.1 (≈ 0.281 µM)	> 100	Activity [9]: 4%
CCCOC/C(=N\c1ccc(Cl)cc1C(F)(F)F)n1ccnc1				Activity [6]: 12.6%; Activity [10]: 10.3%; Activity [12]: 54%; Activity [13]: 19.3%; Activity [14]: 2.9%
Clc1ccc(Nc2nc(-c3cccc4ccccc34)cs2)cc1	2 (≈ 5.94 µM)	0.1 (≈ 0.297 µM)	0.3 (≈ 0.891 µM)	Activity [5]: 25.3%; Activity [8]: 83.1%; Activity [11]: 11.7%
CS(=O)(=O)c1ccc(Nc2nc(-c3c(Cl)cccc3Cl)cs2)cc1	3 (≈ 7.51 µM)	3 (≈ 7.51 µM)	> 100	
Cc1ccc(Nc2nc(-c3c(Cl)cccc3Cl)cs2)cc1	3 (≈ 8.95 µM)	0.1 (≈ 0.298 µM)	0.3 (≈ 0.895 µM)	
Clc1cccc(Cl)c1-c1csc(Nc2ccc(I)cc2)n1	0.3 (≈ 0.671 µM)	0.03 (≈ 0.0671 µM)	0.2 (≈ 0.447 µM)	
Clc1ccc(Nc2nc(-c3ccccc3Cl)cs2)cc1	0.3 (≈ 0.934 µM)	0.3 (≈ 0.934 µM)	> 100	Activity [15]: 46.3%; Activity [9]: 28.8%
Clc1cccc(Cl)c1-c1csc(Nc2ccccc2)n1	2 (≈ 6.23 µM)	1 (≈ 3.11 µM)	> 100	
Clc1ccc(Nc2nc(-c3ccc4ccccc4c3)cs2)cc1	> 100	> 100	> 100	Activity [5]: >35%; Activity [8]: 38.7%
Clc1ccc(Nc2nc(-c3cccc(Cl)c3Cl)cs2)cc1	> 100	3 (≈ 8.43 µM)	> 100	
Cc1cccc(C)c1-c1csc(Nc2ccc(Cl)cc2)n1	10 (≈ 31.8 µM)	0.1 (≈ 0.318 µM)	0.05 (≈ 0.159 µM)	
C[S+]([O-])c1ccc(Nc2nc(-c3c(Cl)cccc3Cl)cs2)cc1 (stereo not drawn)	2 (≈ 5.22 µM)	30 (≈ 78.3 µM)	> 100	
CN(c1ccc(Cl)cc1)c1nc(-c2c(Cl)cccc2Cl)cs1	1 (≈ 2.7 µM)	3 (≈ 8.11 µM)	> 100	Activity [15]: 2%
CN(C)c1ccc(Nc2nc(-c3c(Cl)cccc3Cl)cs2)cc1	> 100	1 (≈ 2.74 µM)	> 100	
CC(C)c1ccc(Nc2nc(-c3c(Cl)cccc3Cl)cs2)cc1	2 (≈ 5.5 µM)	0.3 (≈ 0.826 µM)	> 100	
Clc1ccc(Nc2nc(-c3ccccc3)cs2)cc1	1 (≈ 3.49 µM)	3 (≈ 10.5 µM)	> 100	Activity [15]: 14.3%; Activity [9]: 2%
Clc1ccc(Oc2nc(-c3c(Cl)cccc3Cl)cs2)cc1	1 (≈ 2.8 µM)	1 (≈ 2.8 µM)	0.5 (≈ 1.4 µM)	Activity [15]: 68%; Activity [9]: 61.1%
COc1cccc(OC)c1-c1csc(Nc2ccc(Cl)cc2)n1	5 (≈ 14.4 µM)	0.03 (≈ 0.0865 µM)	0.2 (≈ 0.577 µM)	Activity [4]: 2.3%; Activity [5]: 30.5%; Activity [7]: 46.9%; Activity [8]: 84.1%; Activity [9]: 79.8%; Activity [11]: 70.6%

SMILES	EC50 [1] [µg/mL]	MIC [2] [µg/mL]	EC50 [3] [µg/mL]	also measured
Clc1ccc(Cc2nc(-c3c(Cl)cccc3Cl)cs2)cc1	> 100	> 100	> 100	Activity [9]: 3.8%
Clc1ccc(Nc2nc(-c3c(Cl)cccc3Cl)ns2)cc1	0.6 (≈ 1.68 µM)	0.1 (≈ 0.28 µM)	0.2 (≈ 0.561 µM)	
COc1ccc(Br)c(OC)c1-c1csc(Nc2ccc(Cl)cc2)n1	0.5 (≈ 1.17 µM)	3 (≈ 7.05 µM)	> 100	
Clc1ccc(Nc2nc(-c3ccc(Cl)cc3)cs2)cc1	0.3 (≈ 0.934 µM)	> 100	> 100	Activity [15]: 8.4%
FC(F)(F)Oc1ccc(Nc2nc(-c3c(Cl)cccc3Cl)cs2)cc1	0.3 (≈ 0.74 µM)	0.03 (≈ 0.074 µM)	0.5 (≈ 1.23 µM)	
Fc1ccc(Nc2nc(-c3c(Cl)cccc3Cl)cs2)cc1	3 (≈ 8.84 µM)	0.1 (≈ 0.295 µM)	0.2 (≈ 0.59 µM)	
Clc1ccc(Nc2nc(-c3c(Cl)cccc3Cl)cs2)c(Cl)c1	5 (≈ 12.8 µM)	0.3 (≈ 0.769 µM)	> 100	
FC(F)(F)c1ccc(Nc2nc(-c3c(Cl)cccc3Cl)cs2)cc1	0.3 (≈ 0.771 µM)	0.03 (≈ 0.0771 µM)	0.3 (≈ 0.771 µM)	
CSc1ccc(Nc2nc(-c3c(Cl)cccc3Cl)cs2)cc1	4 (≈ 10.9 µM)	0.1 (≈ 0.272 µM)	0.3 (≈ 0.817 µM)	
Fc1cc(Cl)ccc1Nc1nc(-c2c(Cl)cccc2Cl)cs1	0.5 (≈ 1.34 µM)	0.1 (≈ 0.268 µM)	0.1 (≈ 0.268 µM)	
Clc1cccc(Cl)c1-c1csc(Nc2ccc(Br)cc2)n1	0.5 (≈ 1.25 µM)	0.03 (≈ 0.075 µM)	0.05 (≈ 0.125 µM)	
CCCc1ccc(Nc2nc(-c3c(Cl)cccc3Cl)cs2)cc1	30 (≈ 82.6 µM)	0.1 (≈ 0.275 µM)	> 100	
COc1ccc(Nc2nc(-c3c(Cl)cccc3Cl)cs2)cc1	10 (≈ 28.5 µM)	0.1 (≈ 0.285 µM)	> 100	
Clc1ccc(Nc2nc(-c3c(Cl)cccc3Cl)cs2)cc1Cl	1 (≈ 2.56 µM)	0.1 (≈ 0.256 µM)	1 (≈ 2.56 µM)	
CC(C)(C)c1ccc(Nc2nc(-c3c(Cl)cccc3Cl)cs2)cc1	1 (≈ 2.65 µM)	> 100	> 100	
Clc1ccc(Nc2nc(-c3c(Cl)cc(Cl)cc3Cl)cs2)cc1	0.3 (≈ 0.769 µM)	0.1 (≈ 0.256 µM)	0.05 (≈ 0.128 µM)	
Clc1ccc(Nc2nc(-c3c(Cl)cccc3Cl)cs2)cc1	0.4 (≈ 1.12 µM)	0.03 (≈ 0.0843 µM)	0.05 (≈ 0.141 µM)	Activity [4]: 7.5%; Activity [5]: 28.5%; Activity [6]: 47.2%; Activity [7]: 72.5%; Activity [16]: 0.9%; Activity [8]: 85.8%; Activity [9]: 86.7%; Activity [10]: 1.7%; Activity [11]: 67.4%; Activity [12]: 1.5%; Activity [13]: 44.9%; Activity [17]: 80.3%; Activity [18]: 15.3%; Activity [19]: 1.9%; Activity [14]: 3.6%; Activity [20]: 0.7%
Fc1cccc(F)c1-c1csc(Nc2ccc(Cl)cc2)n1	1 (≈ 3.1 µM)	0.3 (≈ 0.929 µM)	> 100	
O=[N+]([O-])c1ccc(Nc2nc(-c3c(Cl)cccc3Cl)cs2)cc1	> 100	30 (≈ 81.9 µM)	> 100	
Clc1ccc(Nc2nc(-c3cccc(Cl)c3)cs2)cc1	0.3 (≈ 0.934 µM)	3 (≈ 9.34 µM)	> 100	Activity [15]: 1.7%
